In test [1] the target is T1, PDGF-β receptor tyrosine kinase intracellular domain / p85 SH2 fusion protein (PDGF Receptor/PI3-Kinase Association) (Homo sapiens, UniProt P27986).
T1 construct: The pGEX plasmid expressing the carboxy-terminal SH2 of the p85 subunit of PI3-kinase; made in house; host or cells: p85 SH2-GST: E. coli; PDGF-β receptor intracellular domain: SF9 insect cells, obtained from L. T. Williams (UCSF)
Briefly: p85 SH2--PDGF-β Receptor Binding Assay. The following applies: [35S]p85 C-terminal SH2 fusion protein binding to phosphorylated PDGF-β receptor; 25° C., 20 minutes. The protocol:
The pGEX plasmid expressing the carboxy-terminal SH2 of the p85 subunit of PI3-kinase in a glutathione-s-transferase (GST) fusion protein was used in these studies. Expression and purification of the fusion protein was performed as previously described by Zhu, et al., J. Biol. Chem., 1993;268:1175. To prepare [^35 S]p85 fusion proteins, a 125 mL overnight culture of E. coli expressing the p85-GST fusion protein was added to 1000 mL of LB broth containing 100 μg/mL ampicillin. The cultures were incubated at 37° C. until reaching a density of A600 =1.0. 1 mM of isopropyl-β-D-thiogalactoside was added and 15 minutes later, 10 mCi of trans ^35 S-label was added and cultures incubated for an additional 3 hours at 37° C. The cells were then lysed by sonication and fusion proteins purified over glutathione-agarose beads.
Lysates from SF9 insect cells expressing the PDGF-β receptor tyrosine kinase intracellular domain, obtained from L. T. Williams at the University of California at San Francisco, were incubated with M2 affinity beads and the complexes were washed several times with Tris buffer containing protease inhibitors and sodium orthovanadate. Complexes were centrifuged and resuspended in N-[2-hydroxyethyl]piperazine-N'-[2-ethane sulfonic acid] (HEPES) buffer containing 1 mM adenosine triphosphate (ATP), 10 mM MnCl2, and 5 mM MgCl2 to stimulate phosphorylation of the PDGF receptor.
Binding of [^35 S]p85 SH2 fusion proteins to the phosphorylated PDGF-β receptor tyrosine kinase intracellular domain was assayed in Hepes buffer containing ethylene diamine tetraacetic acid (EDTA), NP-40 and […] of each of the protease inhibitors, PMSF, pepstatin, leupeptin, and aprotinin. Binding assays were performed in 96-well millipore filter plates in a final volume of […] of HEPES buffer containing 135 μL phosphorylated PDGF receptor-beads complex (1 μg receptor/well), 10 μL [^35 S]p85 SH2 fusion protein (30,000 cpm/well), and 5 μL of peptide inhibitor as indicated. Samples were incubated at 25° C. for 20 minutes with continuous rocking. Binding was terminated by filtration through the filter plates using a millipore multiscreen filtration manifold Millipore, Bedford, Mass.). Filter plates were washed four times with 0.15 mL Hepes buffer followed by the addition of 40 μL hi-load scintillant and radioactivity retained on the filters was counted in a Wallac 1450 Microbeta counter (Wallac Inc, Gaithersburg, Md.). Total binding was defined as [^35 S]p85 fusion protein bound to the PDGF-β receptor-bead complex retained on the filter plate after washing. Nonspecific binding was defined as radioactivity retained on the filter plates in the presence of excess unlabeled p85 fusion protein. Specific binding was defined as total binding minus nonspecific binding. IC50 values were calculated by weighted nonlinear regression curve fitting.

Test [2] concerns the target T2, PDGF Receptor/PI 3-Kinase association in rat aortic smooth muscle cells (Rattus norvegicus, UniProt Q63787).
T2 construct: endogenous in cells; host or cells: rat aortic smooth muscle cells (RASMC), primary, passages 5 to 20
The test is described as follows: PDGF Receptor/PI 3-Kinase Cell Association Assay. Format: cell-based. The following applies: RASMC, PDGF-BB 30 ng/mL 5 minutes; for inhibition at 25 µM: printed in the Cellular IC50 column, read-out: Inhibition of PDGF Receptor/PI3-Kinase Association (Cellular). The protocol: Smooth muscle cells were isolated from the thoracic aorta of rats (RASMC) and explanted according to the method of Ross, J. Biol. Chem., 1971;30:172-86. Cells were grown in Dulbecco's modified Eagle's medium (DMEM, Gibco) containing 10% fetal calf serum (FBS, Hyclone, Logan, Utah), 1% glutamine (Gibco) and 1% penicillin/streptomycin (Gibco). Cells were identified as smooth muscle cells by their "hill and valley" growth pattern and by fluorescent staining with a monoclonal antibody specific for SMC […] (Sigma). RASMC were used between passages 5 and 20 for all experiments. Test compounds were prepared in dimethylsulfoxide (DMSO) in order to achieve consistency in the vehicle and to ensure compound solubility. Appropriate DMSO controls were simultaneously evaluated with the test compounds.
Rat aortic smooth muscle cells were grown to confluency in 100 mm dishes. Growth medium was removed and replaced with serum-free medium and cells were incubated at 37° C. for an additional 24 hours. Test compounds were then added directly to the medium and cells incubated for an additional 24 hours. After 24 hours PDGF-BB was added at a final concentration of 30 ng/mL for 5 minutes at 37° C. to stimulated autophosphorylation of the PDGF receptor and association of PI 3-kinase to the phosphorylated receptors. […] Following incubation with ^125 I-protein-A, p85 protein levels were detected by phosphorimage analysis and protein bands quantitated via densitometry. […]

The structures appear in SMILES notation.

T2 sequence (Q63787 whole entry): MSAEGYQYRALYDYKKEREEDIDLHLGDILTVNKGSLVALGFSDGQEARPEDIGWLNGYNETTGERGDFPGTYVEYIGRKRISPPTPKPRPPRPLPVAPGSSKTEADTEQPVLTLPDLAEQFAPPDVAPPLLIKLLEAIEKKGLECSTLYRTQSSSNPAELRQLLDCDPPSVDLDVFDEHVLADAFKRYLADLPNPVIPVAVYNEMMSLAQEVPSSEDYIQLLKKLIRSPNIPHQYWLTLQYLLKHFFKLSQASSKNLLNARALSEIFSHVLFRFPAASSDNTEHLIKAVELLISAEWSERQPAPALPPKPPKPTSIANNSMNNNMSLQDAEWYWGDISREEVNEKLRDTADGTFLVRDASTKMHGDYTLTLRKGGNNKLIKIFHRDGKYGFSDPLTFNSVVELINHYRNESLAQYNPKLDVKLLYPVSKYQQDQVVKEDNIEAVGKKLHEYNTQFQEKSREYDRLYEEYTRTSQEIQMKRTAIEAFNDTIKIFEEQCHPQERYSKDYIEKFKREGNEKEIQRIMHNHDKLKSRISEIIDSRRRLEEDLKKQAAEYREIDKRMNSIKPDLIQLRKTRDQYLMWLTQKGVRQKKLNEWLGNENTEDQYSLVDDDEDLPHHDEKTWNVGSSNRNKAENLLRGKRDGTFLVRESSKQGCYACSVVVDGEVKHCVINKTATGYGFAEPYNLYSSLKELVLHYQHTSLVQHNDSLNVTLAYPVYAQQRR
T1 sequence (P27986 624-718 limits assumed): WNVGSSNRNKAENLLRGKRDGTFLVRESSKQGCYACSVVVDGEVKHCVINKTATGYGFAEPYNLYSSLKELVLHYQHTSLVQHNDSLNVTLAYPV

For orientation: IC50 means the concentration needed to halve the response being measured. For the molecule `CCCCCCCCN(CCCCCCCC)C(=O)[C@H](C)NC(=O)[C@@H](NC(=O)[C@H](Cc1ccc(C(F)(F)P(=O)(O)O)cc1)NC(C)=O)C(C)C` [Example 3, [1S-[1R*[R*(R*)]]]-[(4-{2-Acetylamino-2-[1-(1-dioctylcarbamoyl-ethylcarbamoyl)-2-methyl-propylcarbamoyl]-ethyl}-phenyl)-difluoro-methyl]-phosphonic acid], the IC50 in test [1] is 12200 ± 900 nM. As to `CCCCN(CCCC)C(=O)[C@H](C)NC(=O)[C@@H](NC(=O)[C@H](Cc1ccc(OP(=O)(O)O)cc1)NC(C)=O)C(C)C` [Example 6, [1S-[1R*[R*(R*)]]]-Phosphoric acid mono-(4-{2-acetylamino-2-[1-(1-dibutylcarbamoyl-ethyl-carbamoyl)-2-methyl-propylcarbamoyl]-ethyl}-phenyl) ester], the IC50 in test [1] turned out to be 1600 ± 320 nM; in test [2] (24 h compound, p85 immunoblot, read-out: Cellular IC50) it was 37500 nM. In the case of `CCCCCCN(CCCCCC)C(=O)[C@H](C)NC(=O)[C@@H](NC(=O)[C@H](Cc1ccc(C(F)(F)P(=O)(O)O)cc1)NC(C)=O)C(C)C` [Example 1, [1S-[1R*[R*(R*)]]]-[(4-{2-Acetylamino-2-[1-(1-dihexylcarbamoyl-ethylcarbamoyl)-2-methyl-propylcarbamoyl]-ethyl}-phenyl)-difluoro-methyl]-phosphonic acid], the IC50 in test [1] stood at 450 ± 40 nM. `CCCCCN(CCCCC)C(=O)[C@H](C)NC(=O)[C@@H](NC(=O)[C@H](Cc1ccc(C(F)(F)P(=O)(O)O)cc1)NC(C)=O)C(C)C` [Example 2, [1S-[1R*[R*(R*)]]]-[(4-{2-Acetylamino-2-[1-(1-dipentylcarbamoyl-ethylcarbamoyl)-2-methyl-propylcarbamoyl]-ethyl}-phenyl)-difluoro-methyl]-phosphonic acid] showed an IC50 in test [1] of 290 ± 80 nM. The inhibition at 25 µM in test [2] turned out to be 30%. For `CCCCCCCCN(CCCCCCCC)C(=O)[C@H](C)NC(=O)[C@@H](NC(=O)[C@H](Cc1ccc(OP(=O)(O)O)cc1)NC(C)=O)C(C)C` [Example 10, [1S-[1R*[R*(R*)]]]-Phosphoric acid mono-(4-{2-acetylamino-2-[1-(1-dioctylcarbamoyl-ethyl-carbamoyl)-2-methyl-propylcarbamoyl]-ethyl}-phenyl) ester], the IC50 in test [1] was found to be 3500 ± 500 nM. Still for that read-out and setting: to `CCCCCN(CCCCC)C(=O)[C@H](C)NC(=O)[C@@H](NC(=O)[C@H](Cc1ccc(OP(=O)(O)O)cc1)NC(C)=O)C(C)C` [Example 8, [1S-[1R*[R*(R*)]]]-Phosphoric acid mono-(4-{2-acetylamino-2-[1-(1-dipentylcarbamoyl-ethyl-carbamoyl)-2-methyl-propylcarbamoyl]-ethyl}-phenyl) ester] belongs 220 nM. For `CCCCCCN(CCCCCC)C(=O)[C@H](C)NC(=O)[C@@H](NC(=O)[C@H](Cc1ccc(OP(=O)(O)O)cc1)NC(C)=O)C(C)C` [Example 4, [1S-[1R*[R*(R*)]]]-Phosphoric acid mono-(4-{2-acetylamino-2-[1-(1-dihexylcarbamoyl-ethylcarbamoyl)-2-methyl-propylcarbamoyl]-ethyl}-phenyl) ester], the IC50 in test [1] worked out at 80 ± 10 nM. Further, in test [2], the inhibition at 25 µM stood at 27%.
